One test deals with His-MUC1-CD (dog) (dog). Nature of the test: non-reducing PAGE with immunoblot; purified His-MUC1-CD in PBS (pH 7.4) or with GO-203 (50, 150, 450 μM) for 1 h at room temperature; immunoblot with anti-MUC1-C.
The next test relates to GST. Nature of the test: MS-bridge analysis of disulfide linkage, MALDI-TOF-MS, GST control. The format is binding. As to conditions: tryptic digest of GST+GO-203, dimer peak not observed. How it is done:
(§1) Binding experiments with MUC1-CD and GO-203 were performed as described. Complexes were eluted from the glutathione beads, dialyzed and concentrated using amicon ultra centrifugal filters (Millipore, Billerica, MA). The complexes were then subjected to non-reducing electrophoresis and stained with Coomassie Blue. Protein bands were excised and analyzed by MALDI-TOF-MS as described. Briefly, gels were cut into small, uniform pieces; the gel pieces were dehydrated with acetonitrile and then rehydrated in 100 mM ammonium bicarbonate followed by 2 washing and drying cycles with ammonium bicarbonate and acetonitrile, respectively. After complete dehydration, gel pieces were suspended in 12.5 ng/μl trypsin in 50 mM ammonium bicarbonate (50 μl). In-gel digestion was carried out at 37°C for 10–12 h and the samples were acidified with 50 μl of 0.5% TFA. Thirty μl of this mixture was desalted by C-18 containing Zip-Tip (Millipore, Billerica, MA). Trypsin-digested peptides were analyzed by MALDI-TOF-MS (ABI-4800). MALDI-TOF-MS analyses were performed using a Reflector method that was optimized for acquisition for the mass range of 700–3500 amu. Data was collected and analyzed using the data Explorer software package (AB-Sciex, Framingham, MA) and MASCOT (ver.2.0.04, Matrix Science, Boston, MA). MS-bridge analysis was done using Protein Prospector (ver.4.27.2 basic and ver.5.0, UCSF). […]

The subject of test [1] is rat GFP-MUC1-CD and FLAG-MUC1-CD. Nature of the test: MUC1-CD homodimerization in 293T cells, rat, coimmunoprecipitation. The format is cell-based. The settings on record: 5 μM each day for 3 days, anti-FLAG precipitation. The procedure:
(§2) Human ZR-75-1 breast cancer (ATTC) and H1975 lung cancer (ATTC) cell lines were grown in RPMI 1640 supplemented with 10% heat-inactivated fetal bovine serum (HI-FBS), 100 units/ml penicillin, and 100 μg/ml streptomycin. 293T cells were grown in DMEM with 10% HI-FBS, antibiotics, and 2 mmol/L L-glutamine. Cells were treated with FITC conjugated-GO-202 (FITC-GO-202), FITC-GO-203 or unconjugated GO-203 synthesized by the MIT Biopolymer Laboratory (Cambridge, MA) and AnaSpec, Inc (San Jose, CA). The p3XFLAG-CMV-10 (Sigma, St. Louis, MO), pEGFP-C1 and pDsRed-Monomer-N1 (Clontech, Mountain View, CA) vectors were used for transfection of rat and dog MUC1-CD and full length human MUC1 in 293T cells in the presence of Lipofectamine 2000 (Life Technologies, Grand Island, NY).
(§3) Cell lysates were prepared as described. Soluble proteins were immunoprecipitated with anti-FLAG (Sigma, St. Louis, MO), anti-MUC1-C (Thermo Fisher Scientific, Waltham, MA) or a control IgG. The precipitates and lysates not subjected to immunoprecipitation were immunoblotted with anti-MUC1-C, anti-GFP (Abcam, Cambridge, MA), anti-FLAG and anti-FITC (Life Technologies, Grand Island, NY). Reactivity was detected with horseradish peroxidase-conjugated secondary antibodies and chemiluminescence.

The test system of test [2] is human GFP-MUC1-CD and FLAG-MUC1-CD. Nature of the test: MUC1-CD homodimerization in 293T cells, human, coimmunoprecipitation. It is filed as cell-based. The settings on record: 5 μM each day for 3 days, anti-FLAG precipitation. The procedure:
as §2, §3

The subject of test [3] is dog GFP-MUC1-CD and FLAG-MUC1-CD. Nature of the test: MUC1-CD homodimerization in 293T cells, dog, coimmunoprecipitation. The format is cell-based. As to conditions: 5 μM each day for 3 days, anti-FLAG precipitation. How it is done:
as §2, §3

The subject of test [4] is MUC1-C-expressing carcinoma and leukemia cells. Details: method as in PMID 21421804, PMID 23867470. As to conditions: ref [19],[32]; cited from earlier work.
The subject of the next test is dog His-MUC1-CD. Briefly: In vitro dimerization of dog His-MUC1-CD. It is filed as biochemical. As to conditions: GO-203 50, 150 and 450 μM; 1 h at room temperature; non-reducing gel, anti-MUC1-C immunoblot. How it is done: (§4) Vectors expressing GST-MUC1-CD, GST-MUC1-CD(AQA) and His-MUC1-CD, GFP-MUC1-CD and FLAG-MUC1-CD have been described. His-tagged MUC1-CD (rat and dog) were cloned in pET28a vector (Clontech, Mountain View, CA) and expressed in E. coli BL21(DE3).
(§5) Purified His-MUC1-CD was incubated in PBS or increasing amounts of GO-203 for 1 h at room temperature as described. Proteins were then separated in non-reducing polyacrylamide gels and analyzed by immunoblotting.

The subject of a further test is rat His-MUC1-CD. Briefly: In vitro dimerization of rat His-MUC1-CD. It is filed as biochemical. As to conditions: GO-203 50, 150 and 450 μM; 1 h at room temperature; pH 7.4; non-reducing gel, anti-MUC1-C immunoblot. How it is done:
as §4, §5

A further test relates to human His-MUC1-CD. Briefly: In vitro dimerization of human His-MUC1-CD. As to conditions: CP-2 or GO-203 150 μM; 1 h at room temperature; non-reducing gel, anti-MUC1-C immunoblot. It is filed as biochemical. The procedure:
as §4, §5

A further test has as its target T1, GST-MUC1-CD (Homo sapiens, UniProt P15941).
T1 construct: made in house
T1 sequence (P15941 1182-1255 limits assumed): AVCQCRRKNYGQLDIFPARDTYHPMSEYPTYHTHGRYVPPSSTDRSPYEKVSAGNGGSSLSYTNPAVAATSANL
Nature of the test: MS-bridge analysis of disulfide linkage, MALDI-TOF-MS. The format is binding. The settings on record: incubation with purified GST-MUC1-CD, tryptic digest, single disulfide bridge at the CQC motif. The procedure: as §1

In test [5] the target is His-MUC1-CD (human) (human). Briefly: non-reducing PAGE with immunoblot; purified His-MUC1-CD in PBS (pH 7.4) or with GO-203 (50, 150, 450 μM) for 1 h at room temperature; immunoblot with anti-MUC1-C.
The target of a further test is His-MUC1-CD (rat) (rat). The test is described as above.
For another test, the target named is GST-MUC1-CD (human). Nature of the test: saturation binding of FITC-peptide to protein on coated plates (fluorescence); GST-MUC1-CD held on glutathione-coated 96-well plates; FITC-peptide 0.19 μM to 25 μM, 1 h at 37°C; nonspecific binding from GST alone; apparent Kd by non-linear regression.
For test [6], the target named is His-MUC1-CD (human) (human). Nature of the test: saturation binding of FITC-peptide to protein on coated plates (fluorescence); His-MUC1-CD held on nickel-coated 96-well plates; FITC-GO-203 0.19 μM to 25 μM, 1 h at 37°C; apparent Kd by non-linear regression.

Non-standard residues stand in square brackets, D forms with d. No end group written: not given here. *: point of attachment. FITC = O=C1OC2(c3ccc(O)cc3Oc3cc(O)ccc32)c2ccc(NC(=S)*)cc21

On to His-MUC1-CD (dog) (domain or fragment), for which the stoichiometry N in the test with His-MUC1-CD (dog) (dog) stood at 2.

As for “[R]9-CQCRRKN [GO-203, peptide in which the poly-Arg cell-penetrating domain is linked to CQCRRKN (D-amino acids)]”, the “formation of disulfide bridges with GST” value with GST was “not with GST”. Further, the “inhibition of rat FLAG-MUC1-CD/GFP-MUC1-CD complexes in cells” value in [1] is reported as “inhibition of the FLAG-MUC1-CD/GFP-MUC1-CD complexes”. Moreover, the “inhibition of human MUC1-CD homodimerization in cells” value in test [2] is recorded as “inhibition of MUC1-CD homodimerization”. In addition, the “inhibition of dog MUC1-CD homodimerization in cells” value in [3] is reported as “inhibition of MUC1-CD homodimerization”. Also, the “inhibition of survival of MUC1-C-expressing carcinoma and leukemia cells” value in test [4] is “inhibits the survival of MUC1-C-expressing carcinoma and leukemia cells”. In the test on dog His-MUC1-CD, the “inhibition of dog His-MUC1-CD homodimerization” value is on record as “effectively inhibited”. The “inhibition of rat His-MUC1-CD homodimerization” value in the test with rat His-MUC1-CD was “decreased homodimerization”. Also, in the test on human His-MUC1-CD, the “inhibition of human His-MUC1-CD homodimerization” value was “effectively inhibited”. The “formation of disulfide bridges with MUC1-CD” value on GST-MUC1-CD is on record as “forms disulfide bridges specifically with MUC1-CD”.

Consider “AQARRKN [CP-2, control peptide, which includes AQARRKN, reference compound]”, for which, in test [1], the “inhibition of rat FLAG-MUC1-CD/GFP-MUC1-CD complexes in cells” value was “no apparent effect”. Also, the “inhibition of human MUC1-CD homodimerization in cells” value in [2] is “no effect”. Also, the “inhibition of dog MUC1-CD homodimerization in cells” value in test [3] is given as “no effect”. Also, the “inhibition of survival of MUC1-C-expressing carcinoma and leukemia cells” value in test [4] was “not CP-2, inhibits the survival of MUC1-C-expressing carcinoma and leukemia cells”. For the same molecule, the “inhibition of human His-MUC1-CD homodimerization” value in the test with human His-MUC1-CD is “no effect”.

In turn, “His-MUC1-CD (human) (domain or fragment)” showed a stoichiometry N in test [5] of 2.

For His-MUC1-CD (rat) (domain or fragment), the stoichiometry N with His-MUC1-CD (rat) (rat) was 2.

Take {FITC}-RRRRRRRRRCQCRRKN (cysteine pairing not given here) [FITC-GO-202]: in the test with GST-MUC1-CD (human), the Kd came to 880 nM.

Take {FITC}-[dR][dR][dR][dR][dR][dR][dR][dR][dR][dC][dQ][dC][dR][dR][dK][dN] (cysteine pairing not given here) [FITC-GO-203]: the Kd in the test with GST-MUC1-CD (human) was determined as 630 nM; in test [6] it was 860 nM.

The record behind these values is article PMC4534190, “Characterization of the MUC1-C Cytoplasmic Domain as a Cancer Target” (PLoS ONE, 2015).
